From US9662370B2, “Peptidyl diacylglycerides” (priority 2008, dated 2017)
Where no end group is shown, it is not given here. DAG = diacylglycerol ester at the C-terminus

Tests used:
[1] = test system: AR39 Chlamydia pneumoniae; assay: Chlamydia pneumoniae clearance from infected THP-1 monocytes (flow cytometry); type: cell-based; details: 25 ng/ml and 50 ng/ml
Method: THP-1 monocytes (5×10^4 cells/well) were cultured in Hank's Buffered Saline 1 with 10% FBS in a 24-well microplate. Cells were infected with […] AR39 Chlamydia pneumoniae (CPn) bacteria cells to give an MOI=1 and the infected cells were maintained for 72 hours after infection with a daily media change. Cells were either treated with the PDAG vehicle (0.01% Tween-20 in DMSO) or PDAG (25 ng/ml and 50 ng/ml) 24 hours prior to infection or 24 hours after infection. After the 72 hour incubation period cells were harvested and permeabilized with Cytofix/Cytoperm (BD Pharmingen) and mouse α-CPn monoclonal IgG (clone 61C75) was added and the permeabilized cells incubated for 1 hour. After incubation cells were washed and FITC labeled α-mouse IgG was added and incubated for 1 hour. Cells were again harvested and washed. Quantitation of infected cells was measured by flow cytometry. The viability of cells was determined by trypan blue exclusion.

[2] = Stability of PDAG to hydrolysis; type: physicochemical; details: acidic conditions
M. tuberculosis IgM = test system: M. tuberculosis IgM; design: species or system New Zealand White rabbits; details: rabbit, in vivo
NALP3 = NALP3 transcripts in primary human fibroblasts incubated with PDAG; type: cell-based; details: 100 pg/ml, overnight, P=0.007
Method: (§1) mRNA was extracted from primary human fibroblasts incubated overnight with 100 pg/ml synthetic PDAG. NALP3 and NFκB transcripts were measured.

Hepatitis B virus = assay: HBV replication in HepDES19 cells (core DNA Southern blot); type: cell-based; details: HepDES 19 cells
Method: A tetracycline inducible HBV-stable cell line, HepDES19 cells (Guo, 2007), were maintained in DMEM/F-12 medium with penicillin and streptomycin (Invitrogen), 10% FBS, 500 μg/ml G418 (Invitrogen) and 1 μg/ml tetracycline (Sigma-Aldrich, St. Louis, Mo.). To initiate the HBV replication in HepDES19 cells, tetracycline was withdrawn from the medium and the cell was cultured for 4-5 days before viral DNA analysis. To treat the cells with pDAG, the peptide was added in the tetracycline free medium and supplied on the cell culture daily. The concentration of solvent DMSO was adjusted to 0.01% in every treatment.
HBV core DNA was extracted from pDAG-treated HepDES19 cells as described previously (Guo, 2009). Briefly, cells from one 35 mm dish were lysed with 0.5 ml of lysis buffer (10 mM Tris-HCl pH 8.0, 10 mM EDTA, 1% NP40 and 2% sucrose) at 37° C. for 10 minutes. Cell debris and nuclei were removed by centrifugation and the supernatant was mixed with […] of 35% polyethylene glycol (PEG-8000) containing 1.5 M NaCl. After 1 hour incubation in ice, viral nucleocapsids were pelleted by centrifugation at 10,000 rpm for 5 min at 4° C., followed by 1 hour digestion at 37° C. in 200 μl of digestion buffer [0.5 mg/ml pronase (Calbiochem), 0.5% SDS, 150 mM NaCl, 25 mM Tris-HCl pH 8.0, and 10 mM EDTA]. […]

Salmonella typhimurium = assay: Lethal Salmonella typhimurium challenge in mice; type: in vivo, Swiss Webster mice
Method: Swiss Webster mice were challenged with a lethal dose, 5×10^3 cfu/mouse of Salmonella typhimurium. Fifteen of the mice were treated with 5 μg/ml PDAG 24 hours prior to the lethal inoculation. Mice were maintained and monitored daily for 10 days. […] By day 10, 12 mice in the PDAG treated group remained alive, whereas all had died in the untreated group. P<0.0001.

IL-6 = IL-6 mRNA (real-time PCR) and IL-6 protein (ELISA) in fibroblasts stimulated with PDAG; type: cell-based; details: 100 pg/ml PDAG, 24 h
Method: Fibroblasts were stimulated with synthetic PDAG for 24 h. RNA was extracted from the fibroblasts and IL-6 transcripts were measured by real-time PCR and IL-6 protein was measure in the media by ELISA. […] Likewise approximately 2-fold more IL-6 protein in the media of the PDAG treated fibroblasts (P=0.0001) was measured.

NFκB = NFκB transcripts in primary human fibroblasts incubated with PDAG; type: cell-based; details: 100 pg/ml, overnight, P=0.4
Method: as §1

Substance	Chlamydia pneumoniae clearance from infected monocytes [1]	lability to hydrolysis [2]	IgM titer, FCA+PDAG vs FCA only (M. tuberculosis IgM)	NALP3 transcripts increase (NALP3)	antigen specific IgM production (M. tuberculosis IgM)	Hepatitis B virus replication (Hepatitis B virus)	mice remaining alive by day 10 (Salmonella typhimurium; fifteen treated mice, 5 μg/ml PDAG 24 hours prior to lethal inoculation, all untreated died, P<0.0001)	disease progression (Salmonella typhimurium; mice infected with a lethal dose of Salmonella typhimurium)	day on which mortality was first observed (Salmonella typhimurium; mice, 5×10^3 cfu/mouse, 5 μg/ml PDAG 24 hours prior to inoculation, control group day 4)	IL-6 protein in the media (IL-6; ELISA, vs control, P=0.0001)	IL-6 mRNA levels (IL-6; vs untreated cells, P=0.001)	NFκB transcripts increase (NFκB)
PDAG peptide: Peptide portion of PDAG without the lipid moiety (acALYDKGYTSKEQKDCVGI, SEQ ID NO:8) (Ac-ALYDKGYTSKEQKDCVGI)	induce Chlamydia pneumoniae clearance	–	–	–	–	–	–	–	–	–	–	–
acALYDKGYTSKEQKDCVGI-DAG [native PDAG]	–	especially labile to hydrolysis under acidic conditions	significantly greater	–	–	–	–	–	–	–	–	–
acALYDKGYTSKEQKDCVGI-DAG (Ac-ALYDKGYTSKEQKDCVGI-{DAG}) [PDAG, Peptidyl diacylglyceride: N-acetylated 18-mer peptide esterified at C-terminal isoleucine to 1-stearoyl-2-arachidonoyl-sn-glycerol]	induce Chlamydia pneumoniae clearance	–	–	1.75 fold	two-fold increase	suppresses Hepatitis B virus replication	12 mice	significantly delays disease progression	7 days	approximately 2 fold	increase IL-6 mRNA levels	did not
